Measured values as given in ChEMBL document CHEMBL1201862, “PubChem BioAssay data set” (2004).
Several values for one entry are separate records, joined by “and”; a condition that tells them apart may be missing. Equal entries are not always repeated. Activity calls are given as the source filed them.

Assays:
Vero [1] = experiment: cytotoxicity of synthesized analogs in Vero 76, SAR follow-up, cytotoxicity control for West Nile virus antiviral project, Vero 76 cells (AID 2414); type: functional, Chlorocebus sabaeus
Vero [2] = experiment: West Nile virus cytopathic effect inhibition, cell-based (AID 2419); type: functional; details: Chlorocebus sabaeus
Vero [3] = experiment: West Nile virus CPE inhibition, SAR follow-up, cell-based, synthesized analogs (AID 2238); type: functional; details: Chlorocebus sabaeus
Vero [4] = experiment: Vero E6 cell cytotoxicity, SAR follow-up, cytotoxicity control for West Nile virus antiviral project, synthesized analogs (AID 2244); type: functional; details: Chlorocebus sabaeus
Vero [5] = experiment: West Nile virus antiviral activity, cell-based, CPE readout (AID 1621); type: functional; details: Chlorocebus sabaeus
[6] = A Cell Based Assay for the Identification of Probe candidate Compounds with Anti- Venezuelan Equine Encephalitis virus. [Related pubchem assays: 2409, 2419, 1621, 2238, 2405, 2024, 2065, 2402, 2414, 1635, 1650, 2244 ]; type: functional
Vero [7] = experiment: cytotoxicity of synthesized analogs in Vero cells, SAR follow-up, cytotoxicity control for West Nile virus antiviral project, cell-based, set II (AID 2402); type: functional, Chlorocebus sabaeus
[8] = molecular target: Dual specificity protein phosphatase 3 (Homo sapiens, UniProt P51452); experiment: Dose Response Confirmation of compounds that inhibit VHR1 in Fluorescent Assay. [Related pubchem assays (depositor defined):AID1661, AID1878]; type: functional
[9] = molecular target: 26S proteasome non-ATPase regulatory subunit 14 (Homo sapiens, UniProt O00487); experiment: inhibition of proteasome subunit RPN11 – biochemical, fluorescence polarization, uHTS hits, confirmation (AID 602368); type: functional
Prothrombin = Prothrombin (Bos taurus, UniProt P00735); experiment: thrombin inhibition, dose response, biochemical, fluorescence polarization, uHTS hits (AID 602369); type: functional
[10] = molecular target: 72 kDa type IV collagenase (Homo sapiens, UniProt P08253); experiment: Dose Response validation of uHTS RPN11 inhibitor hits using a MMP-2 Fluorescence assay.; type: functional
[11] = molecular target: T1, Tyrosine-protein phosphatase non-receptor type 7 (Homo sapiens, UniProt P35236); experiment: Dose Response confirmation of compounds that inhibit HePTP. [Related pubchem assays (depositor defined):AID1059, AID1661, AID2085]; type: functional
T1 sequence (P35236 whole entry): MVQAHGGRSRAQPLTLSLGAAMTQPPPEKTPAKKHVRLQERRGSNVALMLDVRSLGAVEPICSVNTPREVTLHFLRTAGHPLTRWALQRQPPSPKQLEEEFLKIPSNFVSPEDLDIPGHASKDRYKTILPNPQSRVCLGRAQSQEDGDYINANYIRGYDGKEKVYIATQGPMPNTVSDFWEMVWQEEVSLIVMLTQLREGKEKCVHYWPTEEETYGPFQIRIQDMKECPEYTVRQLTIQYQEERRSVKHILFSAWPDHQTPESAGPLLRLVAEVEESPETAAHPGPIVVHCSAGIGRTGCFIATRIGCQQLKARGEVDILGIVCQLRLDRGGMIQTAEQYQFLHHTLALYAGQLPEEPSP

[12] = molecular target: T2, Polyadenylate-binding protein 1 (Homo sapiens, UniProt P11940); experiment: PABP inhibition in translation initiation, SAR follow-up (AID 435018); type: functional
[13] = molecular target: T3, Eukaryotic translation initiation factor 4H (Homo sapiens, UniProt Q15056); experiment: eIF4H inhibition in translation initiation, SAR follow-up (AID 435011); type: functional
[14] = molecular target: T3, Eukaryotic translation initiation factor 4H; experiment: human eIF4H binding inhibitors, primary screen, translation initiation inhibitor project, biochemical, uHTS, fluorescence polarization (AID 2012)
[15] = molecular target: T2, Polyadenylate-binding protein 1; experiment: PABP poly(A) RNA binding inhibitors, primary screen, biochemical, fluorescence polarization, uHTS (AID 2014)
[16] = molecular target: T4, E3 ubiquitin-protein ligase XIAP (Homo sapiens, UniProt P98170); experiment: XIAP antagonists, biochemical, IAP family, fluorescence polarization (AID 1018); type: functional
[17] = molecular target: T4, E3 ubiquitin-protein ligase XIAP; experiment: Counter Screen using XIAP-Bir3 for Chemical Antagonists of Bir1/2 domains of IAP-family anti-apoptotic proteins. [Related pubchem assays (depositor defined):AID1018, AID1449, AID1514, AID1638, AID1749, AID1750, AID488957, AID488963]

T2 sequence (P11940 whole entry): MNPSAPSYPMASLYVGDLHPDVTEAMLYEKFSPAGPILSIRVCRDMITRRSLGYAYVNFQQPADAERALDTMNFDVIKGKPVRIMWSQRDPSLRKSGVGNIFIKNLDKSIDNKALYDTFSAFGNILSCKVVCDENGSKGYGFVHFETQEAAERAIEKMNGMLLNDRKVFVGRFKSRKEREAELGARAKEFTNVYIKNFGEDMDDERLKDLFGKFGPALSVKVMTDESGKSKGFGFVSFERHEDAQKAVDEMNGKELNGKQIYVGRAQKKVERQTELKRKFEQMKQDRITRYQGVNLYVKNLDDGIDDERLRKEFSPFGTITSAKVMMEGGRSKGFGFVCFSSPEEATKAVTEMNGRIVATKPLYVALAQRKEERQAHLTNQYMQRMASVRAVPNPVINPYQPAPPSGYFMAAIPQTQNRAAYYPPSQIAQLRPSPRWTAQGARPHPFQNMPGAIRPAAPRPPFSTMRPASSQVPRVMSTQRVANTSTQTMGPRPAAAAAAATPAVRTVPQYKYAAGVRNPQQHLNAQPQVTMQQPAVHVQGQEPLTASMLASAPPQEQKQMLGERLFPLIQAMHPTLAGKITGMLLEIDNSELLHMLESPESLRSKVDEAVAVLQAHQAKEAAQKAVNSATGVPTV
T4 sequence (P98170 whole entry): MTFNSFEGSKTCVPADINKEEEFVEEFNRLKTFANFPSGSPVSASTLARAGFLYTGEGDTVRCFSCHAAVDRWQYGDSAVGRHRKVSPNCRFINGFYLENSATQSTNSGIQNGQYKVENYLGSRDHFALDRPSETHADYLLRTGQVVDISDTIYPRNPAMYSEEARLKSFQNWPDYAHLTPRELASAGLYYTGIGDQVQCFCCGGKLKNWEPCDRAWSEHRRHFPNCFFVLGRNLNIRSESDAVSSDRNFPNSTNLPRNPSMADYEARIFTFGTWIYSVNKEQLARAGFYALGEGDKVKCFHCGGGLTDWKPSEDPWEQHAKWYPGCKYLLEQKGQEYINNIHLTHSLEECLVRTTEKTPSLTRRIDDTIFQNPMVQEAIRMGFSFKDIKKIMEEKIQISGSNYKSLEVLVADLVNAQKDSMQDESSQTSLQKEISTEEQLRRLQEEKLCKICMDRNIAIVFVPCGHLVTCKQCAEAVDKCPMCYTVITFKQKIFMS
Dual specificity protein phosphatase 3, sequence (P51452 whole entry): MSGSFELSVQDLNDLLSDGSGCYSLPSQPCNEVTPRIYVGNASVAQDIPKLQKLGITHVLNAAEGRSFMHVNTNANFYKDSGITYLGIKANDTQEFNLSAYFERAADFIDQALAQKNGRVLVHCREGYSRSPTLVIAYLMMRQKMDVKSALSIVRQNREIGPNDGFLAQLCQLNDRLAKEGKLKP
26S proteasome non-ATPase regulatory subunit 14, sequence (O00487 whole entry): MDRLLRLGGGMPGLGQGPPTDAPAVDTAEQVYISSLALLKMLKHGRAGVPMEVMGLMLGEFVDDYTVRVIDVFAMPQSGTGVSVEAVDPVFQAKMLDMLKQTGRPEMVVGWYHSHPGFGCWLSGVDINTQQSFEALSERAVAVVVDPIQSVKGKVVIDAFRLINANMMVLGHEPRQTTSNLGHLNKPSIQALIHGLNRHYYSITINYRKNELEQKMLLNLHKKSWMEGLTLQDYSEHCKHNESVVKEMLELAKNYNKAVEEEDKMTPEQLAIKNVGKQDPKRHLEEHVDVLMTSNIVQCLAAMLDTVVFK
72 kDa type IV collagenase, sequence (P08253 whole entry): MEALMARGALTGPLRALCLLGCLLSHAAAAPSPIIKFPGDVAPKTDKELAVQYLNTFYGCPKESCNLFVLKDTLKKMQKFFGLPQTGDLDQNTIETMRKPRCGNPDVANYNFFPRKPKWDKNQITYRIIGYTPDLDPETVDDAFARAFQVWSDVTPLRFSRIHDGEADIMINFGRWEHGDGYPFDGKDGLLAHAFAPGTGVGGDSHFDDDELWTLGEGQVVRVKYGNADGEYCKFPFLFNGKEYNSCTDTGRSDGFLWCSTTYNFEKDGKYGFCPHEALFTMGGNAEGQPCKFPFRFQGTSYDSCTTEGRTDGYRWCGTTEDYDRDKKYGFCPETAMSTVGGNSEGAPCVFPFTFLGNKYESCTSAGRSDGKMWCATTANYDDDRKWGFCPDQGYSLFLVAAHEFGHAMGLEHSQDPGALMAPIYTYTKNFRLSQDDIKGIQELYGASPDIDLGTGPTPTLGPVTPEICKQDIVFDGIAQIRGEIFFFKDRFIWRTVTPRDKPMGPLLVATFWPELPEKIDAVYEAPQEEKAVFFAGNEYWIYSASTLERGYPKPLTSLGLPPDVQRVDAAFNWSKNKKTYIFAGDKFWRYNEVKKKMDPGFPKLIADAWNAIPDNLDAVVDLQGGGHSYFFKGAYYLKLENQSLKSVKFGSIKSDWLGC

With `Brc1ccc2c(c1)CN1CCCC1=N2` the CC50 (Vero [1]) was 124 µM (active), the CC50 (Vero [1]; Chlorocebus sabaeus, Vero) was > 66.6 µM (active) and the IC50 (Vero [2]) was 16.8 µM (active). The IC50 (Vero [3]) was 38.9 µM (active), the CC50 (Vero [4]) was > 40 µM (active) and the IC50 (Vero [5]) was 19.7 µM (active). For the same molecule, the IC50 [6] was > 66.6 µM (active) and 60.3 µM (active), the CC50 (Vero [7]) was 197 µM (active) and the CC50 (Vero [7]; Chlorocebus sabaeus, Vero) was > 100 µM (active).
In the case of `Cc1ccc(-c2nnn3c2nc(NCCc2ccc(S(N)(=O)=O)cc2)c2ccccc23)cc1`, the IC50 [8] is reported as 0.783 µM (active), the IC50 [9] is reported as 17.7 µM (active) and the IC50 (Prothrombin) is reported as 77.4 µM (active). For the same molecule, the IC50 [10] was > 100 µM (inactive) and the IC50 [11] was 0.819 µM (active).
In the case of `COc1ccc(OC)c(NC(=O)CSc2ccc(-c3ccco3)nn2)c1`, the IC50 [12] is reported as > 100 µM (inactive), the IC50 [13] is reported as 48.7 µM (active) and the IC50 [14] is reported as 16.1 µM (active). The IC50 [15] was 93.4 µM (active).
With `CCOCCCNC(=O)c1cn(CC(C)C)c(=O)c2cc(OC)c(OC)cc12` the IC50 [16] was > 100 µM (not active) and the IC50 [17] was > 100 µM (inactive).
